Consider 5 molecules from patent US8609651B2, “Pharmaceutical compositions of benzodiazepines and method of use thereof” (Jazz Pharmaceuticals, Inc., priority 2006, dated 2013).

Molecules are shown by their SMILES. Values after ≈ are worked out from the molar mass of the structure shown. Read-outs that look alike come from different tables or passages of the source.

The nature of series [1]: Human pharmacokinetic study (oral, intravenous, intranasal cross-over). Particulars: after 1 mg clonazepam. As for the experimental part:
The human pharmacokinetics, safety, and tolerability of the benzodiazepines compositions of the present invention formulated for intranasal delivery for therapeutic applications are evaluated using standard clinical procedures. Benzodiazepine compositions formulated for intranasal delivery are provided, for example, for application by the participants to intranasal mucosa.
A primary objective of initial studies in humans is to determine and compare pharmacokinetic profiles of three dosage forms of a benzodiazepine: oral, i.v., and intranasal, following single administration. An example of such a study in humans is a cross-over study performed in 12 healthy male volunteers. Plasma and urine level of clonazepam and 7-amino-clonazepam are determined, for example, using HPLC and UV detection. […] Further the initial studies in humans are used to determine local tolerability of intranasal formulation using questionnaire and the Visual Analog Scale (VAS). VAS is a validated instrument that has been used in numerous studies to quantify subjective […]. In addition, cognitive, sleepiness and mood effects are evaluated using questionnaires and scales (see, e.g., Example 10 below). Further, attention and vigilance may be evaluated using, for example, LEEDS Psychomotor Multiple Choice Reaction Time (MCRT) testing.
A human pharmacokinetic study was carried out as described in Example 8.
15 young, healthy male volunteers received a single dose of 1 mg clonazepam by oral, intravenous and intranasal routes in a three-period cross-over design.

Series [2] in a line: Drug recovery, degradation and binding to nasal sheep mucosa. The series is classed as in vitro ADME. Particulars: sheep nasal mucosa (excised tissue) in buffer, 37° C., read-out: % recovery in the presence of nasal sheep mucosa. As for the experimental part:
(i) Drug recovery, degradation and binding to nasal sheep mucosa: The effect of drug recovery, degradation and binding to sheep nasal mucosa was determined. Briefly, a known surface area (approx. 1 cm^2) of sheep nasal mucosa was added into a glass vial containing a known concentration (10 μg/mL) of each drug prepared in the receiver fluid (10% ethanol in pH 6 buffer). The content of the vial was allowed to equilibrate at 37° C. over a period of 48 h. At 24 h intervals, a sample was removed and assayed via HPLC. The percentage of drug recovered was calculated using Equation 4: % drug recovered=(drug concentration at t=Y/drug concentration at t=Z)×100 (Equation 4)
where, Y=specific time point at 37° C. (in the presence of nasal sheep mucosa); and Z=specific time point at 37° C. (in the absence of nasal sheep mucosa).
In addition to the stability against heat degradation, the effect of drug binding or degradation in the presence of nasal sheep mucosa was also determined (Table 6).

For series [3] the following is noted: in vivo; cited from earlier work.
Series [4] is described as follows: Solubility of benzodiazepines in DEGEE (Transcutol) at 25° C. and −16° C. Particulars: organic solvent or mixture, thermodynamic from solid. As for the experimental part:
The solubilities of several other benzodiazepines were measured in DEGEE (diethylene glycol monoethyl ether, transcutol) by the techniques of Example 1. Initially, 10 mg of the drug was loaded in the glass vial and 130-μL of DEGEE was added, and the samples were sonicated for 10 minutes. […] Samples were stored at −16° C. and 25° C. overnight, and centrifuged (5000 rpm, 2 minutes, −10° C. and 23° C. for the −16° C. and 25° C. samples, respectively). […] Clonazepam was measured by UV at 350 nm; all others at 300 nm.

Series [5] can be described thus: Saturated solubility in receiver fluid systems (HPLC). As to conditions: 37 °C, thermodynamic from solid. As for the experimental part: Following the stability studies, a suitable receiver fluid was developed in order to ensure that sink conditions for tested drug were such that the drug release was limited by the solubility of the drug in the receiver fluid. […] Briefly, drug was saturated into different receiver fluid systems by adding excess drug and allowed to stir with a magnetic flea over a period of 2 h at 37° C. Each saturated solution was then filtered using a 0.2 μm syringe filter and the resultant solution was assayed via HPLC.
Calibration curves for clonazepam were constructed between 0.2 to 10 μg/mL with appropriate replicates to ensure repeatability and linearity.
Standards were prepared in receiver fluid (10% ethanol in buffer 6). […] The filtration at room temperature was performed as quickly as possible to minimize any drug precipitation as the temperature dropped from 37° C. during filtration.

Series [6] can be described thus: Viscosity of solvent matrices (Brookfield DV-I viscometer). The series is classed as physicochemical. Particulars: solvent matrix without drug. As for the experimental part:
(§1) Fourteen representative solvent matrices used for clonazepam formulations were tested for spray pattern and compared with water. The solvent mixtures were made up, spiked with minute amounts of Coomassie Brilliant Blue Dye and 100 μL were subsequently filled into Pfeiffer unit-dose devices (Pfeiffer of America, Princeton, N.J.). To measure the spray pattern, the devices were actuated below a sheet of paper that was located 3 cm above the spray nozzle. All measurements were made at ambient room temperature (20-25° C.). The smallest (Dmin) and the largest (Dmax) diameter of the blue pattern formed on the sheet of paper were measured and the results used to calculate the Dmax/Dmin ratio, the area of the pattern and the average spray angle. The plume area at 3 cm was calculated using the equation for the area of an ellipse using the half of the two diameters as the ellipse radii. Viscosity of all formulations was measured using Brookfield DV-I viscometer (Brookfield Engineering Laboratories, Inc., Middleboro, Mass.).

Series [7] can be described thus: Spray pattern of solvent matrices (plume area, spray angle, Dmax/Dmin). The class given is physicochemical. As to conditions: 100 μL from Pfeiffer unit-dose device, paper 3 cm above nozzle, 20-25° C. As for the experimental part: as §1
A short description of series [8]: Effect of temperature on viscosity (Gilmont falling ball viscometer). The series is classed as physicochemical. As for the experimental part:
As weather may dictate substantially different conditions of use, the effect of temperature on viscosity was determined. A Gilmont falling ball viscometer was filled with diethylene glycol monoethyl ether and calibrated for several hours at each temperature. At −17° C., 8° C., 23° C. and 40° C. the measured viscosity was 6.6 cP, 5.4 cP, 3.8 cP and 3.1 cP, respectively.

In the case of `Nc1ccc2c(c1)C(c1ccccc1Cl)=NCC(=O)N2` [7-Amino-clonazepam], the results for the “mean AUCt of metabolite” value in series [1] (intranasal), in series [1] (intravenous) and in series [1] (oral) were 16.9 ng·h/mL, “approximately 30 ng·h/mL” and “approximately 30 ng·h/mL”, respectively. Also, the “mean Cmax of metabolite” value in series [1] (intranasal) was 1.17 ng/mL; in series [1] (intravenous) it was “approximately 2 ng/mL”; in series [1] (oral) it was “approximately 2 ng/mL”.
In the case of `CN1C(=O)CN=C(c2ccccc2)c2cc(Cl)ccc21` [Diazepam], the recovery at 24 h, 10 μg/mL came out at 97.6% in series [2] (buffer pH 5 (10% ethanol)), 98% in series [2] (buffer pH 6 (10% ethanol)) and 97.6% in series [2] (buffer pH 7 (10% ethanol)). Moreover, the recovery at 48 h, 10 μg/mL in series [2] (buffer pH 5 (10% ethanol)) was found to be 95.6%; in series [2] (buffer pH 6 (10% ethanol)) it was 125%; in series [2] (buffer pH 7 (10% ethanol)), 94.7%. In series [3], the “roughly equal dose (potency equivalence)” value is roughly 5.0 mg.
In the case of `O=C1Nc2ccc(Cl)cc2C(c2ccccc2Cl)=NC1O` (stereo not shown) [Lorazepam], the figures for the recovery at 24 h, 10 μg/mL in series [2] (buffer pH 5 (10% ethanol)), in series [2] (buffer pH 6 (10% ethanol)) and in series [2] (buffer pH 7 (10% ethanol)) were 96.9%, 96.8% and 96.2%, respectively. Besides, the figures for the recovery at 48 h, 10 μg/mL in series [2] (buffer pH 5 (10% ethanol)), in series [2] (buffer pH 6 (10% ethanol)) and in series [2] (buffer pH 7 (10% ethanol)) were 94.9%, 97% and 91.7%, respectively. Further, the solubility is greater than 110000 µg/mL in series [4] (25 °C) and greater than 130000 µg/mL in series [4] (-16 °C). The solubility at 2 h in series [5] (pH 6, aqueous buffer, buffer pH 6, 37° C.) was 78.5 µg/mL (≈ 244 µM); in series [5] (pH 6, aqueous with cosolvent or surfactant or cyclodextrin, 20% ethanol in buffer pH6, 37° C.), 309 µg/mL (≈ 962 µM); in series [5] (pH 6, aqueous with cosolvent or surfactant or cyclodextrin, receiver solution, 10% ethanol in buffer pH 6, 37° C.) it was 126 µg/mL (≈ 392 µM). Also, the half-life in series [3] is 8 to 24 h. Also, the “roughly equal dose (potency equivalence)” value in series [3] was roughly 1.0 mg.
Take `O` [Water]: the Avg. viscosity in series [6] is on record as 1.0 cP. For the same molecule, in series [7], the “Ratio Dmax/Dmin” value turned out to be 1.10. For the same molecule, the Spray angle in series [7] (average angle calculated from diameters) is listed as 73.1 °. The “Plume area at 3 cm” value in series [7] (ellipse area from Dmax and Dmin) is listed as 15.52 cm^2.
As to `CCOCCOCCO` [diethylene glycol monoethyl ether], the viscosity in series [8] (8° C.) was 5.4 cP; in series [8] (23° C.) it was 3.8 cP; in series [8] (40° C.), 3.1 cP; in series [8] (−17° C.), 6.6 cP.

For orientation: solubility means the dissolved amount per volume that the medium holds. By half-life is commonly meant the time in which the quantity being followed falls by half. Broadly, the viscosity is the resistance of a fluid to flow. A high value points to sluggish flow.
